The values below come from publication PMC6556873, “Rapid Covalent-Probe Discovery by Electrophile-Fragment Screening” (Journal of the American Chemical Society, 2019).

A short description of data set [1]: in vitro. More on the design: species or system HB2, CCD841. The settings on record: human, hek293 cells.
The nature of data set [2]: in vitro. Details: species or system CCD841, HEK293. The settings on record: human, hb2 cells, read-out: HB-2 Cells Viability (%).
In another data set the target is T1, PCAF (Homo sapiens, UniProt Q92831).
T1 construct: gene KAT2B
Details: Intact protein LC/MS covalent labelling, fragments in pools of five, 200 uM each, 4 °C. The settings on record: 24 h, 4 °C, pool of five; 200 µM; covalent. The protocol: (§1) Incubations were performed at 200 μM for each compound and 2 μM of protein (10 μM for BSA) for 24 h at 4 °C with moderate shaking. Incubation buffers varied among proteins (PBS pH 7.4 for QSOX1 and BSA; 10 mM HEPES pH 7.5, 0.3 M NaCl, 0.5 mM TCEP for PCAF, UPS8, and NUDT7; […]; 10 mM Na2HPO4 pH 7.5 100 mM NaCl 5 mM β-mercaptoethanol for NV3CP; 20 mM Na phosphate pH 7.5 for NNMT; […]. The reaction was stopped by quenching with formic acid, 0.4% final concentration. Each protein was incubated with the electrophilic library in pools of five compounds per well. The pool’s composition maximized the difference in mass between fragments in the same well. Incubations were performed with each fragment at 200 μM, for 24 h at 4 °C, to allow the screening of proteins that are not stable for long time periods at higher temperatures. Following incubation, we used intact protein [compound left out] chromatography/mass spectrometry (LC/MS) to identify the fragments and quantify their labeling (Figure 3A). […] There was good agreement between the percent of labeling of NUDT7 by 100 random individual compounds and that obtained in pools of five (R^2=0.78; Figure S6 and Data set 2 in the Supporting Information).

For the next data set, the target named is T2, BSA (Bos taurus, UniProt P02769).
T2 construct: gene ALB
More on the design: Intact protein LC/MS covalent labelling, fragments in pools of five, 200 uM each, 4 °C. The settings on record: 24 h, 4 °C, pool of five; 200 µM; covalent. How it is done: as §1

The target in a further data set is T3, NUDT7 (Homo sapiens, UniProt P0C024).
T3 construct: residues 14-235, E. coli, pNIC28-Bsa4, N-terminal His6 tag removed by TEV, construct 26672 Da
More on the design: Intact protein LC/MS covalent labelling, fragments in pools of five, 200 uM each, 4 °C. The note with it: 24 h, 4 °C, pool of five; 200 µM; covalent. The protocol:
as §1

Data set [3] is described as follows: in vitro. The settings on record: human, ccd841 cells. More on the design: species or system HB2, HEK293.

Like-named read-outs stand apart in the source and are kept apart here.

T2 sequence (P02769 whole entry): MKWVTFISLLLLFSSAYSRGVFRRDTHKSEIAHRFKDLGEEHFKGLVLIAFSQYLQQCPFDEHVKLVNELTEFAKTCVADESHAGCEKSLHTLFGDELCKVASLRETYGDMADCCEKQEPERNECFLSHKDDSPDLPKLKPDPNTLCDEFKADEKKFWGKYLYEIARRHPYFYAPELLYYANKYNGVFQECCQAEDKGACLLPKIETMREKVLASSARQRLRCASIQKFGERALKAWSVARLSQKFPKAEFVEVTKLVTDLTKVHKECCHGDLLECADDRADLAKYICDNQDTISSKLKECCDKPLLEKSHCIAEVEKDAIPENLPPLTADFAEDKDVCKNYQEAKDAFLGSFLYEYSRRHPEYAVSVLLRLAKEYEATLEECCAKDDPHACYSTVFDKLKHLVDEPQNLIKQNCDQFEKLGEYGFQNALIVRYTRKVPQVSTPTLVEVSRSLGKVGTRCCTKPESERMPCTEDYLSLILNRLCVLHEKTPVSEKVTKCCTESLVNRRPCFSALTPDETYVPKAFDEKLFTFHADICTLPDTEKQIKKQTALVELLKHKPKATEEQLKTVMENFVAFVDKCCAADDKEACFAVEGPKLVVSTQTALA
T3 sequence (P0C024 14-235): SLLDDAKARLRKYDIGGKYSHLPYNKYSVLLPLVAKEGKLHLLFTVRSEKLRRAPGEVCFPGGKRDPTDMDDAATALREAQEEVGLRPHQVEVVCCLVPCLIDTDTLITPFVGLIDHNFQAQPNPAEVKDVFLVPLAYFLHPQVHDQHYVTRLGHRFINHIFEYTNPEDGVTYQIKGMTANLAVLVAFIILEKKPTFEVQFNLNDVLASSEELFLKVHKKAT
T1 sequence (Q92831 whole entry): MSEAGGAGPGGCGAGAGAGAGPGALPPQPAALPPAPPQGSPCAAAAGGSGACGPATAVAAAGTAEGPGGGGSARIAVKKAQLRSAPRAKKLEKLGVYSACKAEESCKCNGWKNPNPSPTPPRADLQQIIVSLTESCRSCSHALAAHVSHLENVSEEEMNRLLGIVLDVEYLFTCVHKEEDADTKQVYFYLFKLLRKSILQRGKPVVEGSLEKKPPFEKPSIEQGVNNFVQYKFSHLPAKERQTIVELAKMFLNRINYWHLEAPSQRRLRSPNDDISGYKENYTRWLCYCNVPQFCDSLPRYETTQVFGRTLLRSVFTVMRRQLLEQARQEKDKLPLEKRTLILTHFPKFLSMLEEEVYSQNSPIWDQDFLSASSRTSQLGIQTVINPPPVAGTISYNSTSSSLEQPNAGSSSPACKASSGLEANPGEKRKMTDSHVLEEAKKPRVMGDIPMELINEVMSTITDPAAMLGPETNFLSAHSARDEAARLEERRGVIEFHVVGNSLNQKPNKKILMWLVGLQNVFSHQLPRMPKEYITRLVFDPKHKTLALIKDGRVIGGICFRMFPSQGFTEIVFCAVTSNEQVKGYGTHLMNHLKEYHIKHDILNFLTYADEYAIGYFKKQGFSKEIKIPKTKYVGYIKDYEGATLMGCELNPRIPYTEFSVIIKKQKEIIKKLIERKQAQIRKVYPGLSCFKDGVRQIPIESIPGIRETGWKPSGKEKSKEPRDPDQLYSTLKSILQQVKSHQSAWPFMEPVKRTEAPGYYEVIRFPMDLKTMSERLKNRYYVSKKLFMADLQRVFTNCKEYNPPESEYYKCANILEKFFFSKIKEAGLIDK

With `CC(=O)c1sc2nc(C)cc(C)c2c1NC(=O)CCl` [PCM-0102108], the viability at 48 h, 10 µM in “in vitro [1]” was 101%; in the data set “in vitro [2]”, 103%; in the data set “in vitro [3]”, 99%. Besides, the PCAF at PCAF was determined as 0. At BSA, this molecule displayed a BSA of 0. This molecule registered an NUDT7 at NUDT7 of 0.
With `COc1ccc(C(=O)NNC(=O)CCl)cc1` [PCM-0102115], the viability at 48 h, 10 µM in the data set “in vitro [1]” worked out at 79.4%; in the data set “in vitro [2]” it was 91.7%; in “in vitro [3]”, 81.5%. For the same molecule, the PCAF on PCAF came out at 0. This molecule yielded a BSA on BSA of 0. The molecule also showed an NUDT7 on NUDT7 of 0.11.
For the molecule `O=C(CCl)Nc1ccc2[nH]c(C(F)(F)F)nc2c1` [PCM-0102151], the viability at 48 h, 10 µM is 1.3% in the data set “in vitro [1]”, 7.4% in “in vitro [2]” and 28% in the data set “in vitro [3]”. Besides, the PCAF at PCAF was 0. In addition, the BSA at BSA is reported as 0. Moreover, the NUDT7 on NUDT7 is given as 0.07.
`Cc1cccc([N+](=O)[O-])c1NC(=O)CCl` [PCM-0102176]: the viability at 48 h, 10 µM in “in vitro [1]” is 77.5%; in the data set “in vitro [2]”, 85.3%; in “in vitro [3]”, 71.7%. This molecule had a PCAF on PCAF of 0. The same molecule gave a BSA at BSA of 0. On NUDT7, this molecule registered an NUDT7 of 0.22.
Consider `CN(Cc1c(F)cccc1Cl)C(=O)CCl` [PCM-0102184], for which the viability at 48 h, 10 µM is 4.9% in “in vitro [1]”, 9.3% in the data set “in vitro [2]” and 42.2% in “in vitro [3]”. On PCAF, this molecule had a PCAF of 0. The molecule further showed a BSA at BSA of 0.
As to `O=C(CCl)Nc1ccc(N2CCCCCC2)cc1` [PCM-0102199], the values for the viability at 48 h, 10 µM in “in vitro [1]”, in the data set “in vitro [2]” and in “in vitro [3]” were 4%, 7% and 31.8%, respectively. The molecule also showed a PCAF on PCAF of 0. Further, at BSA, the BSA worked out at 0. Also, the NUDT7 on NUDT7 turned out to be 0.08.
As to `Cc1cccc(N2CCN(C(=O)CCl)CC2)c1C` [PCM-0102215], the viability at 48 h, 10 µM was 11.1% in the data set “in vitro [1]”, 7.5% in “in vitro [2]” and 43.8% in “in vitro [3]”. In addition, at PCAF, the PCAF is recorded as 0. This molecule also returned a BSA at BSA of 0. On NUDT7, this molecule gave an NUDT7 of 0.29.
Take `N#Cc1cnn(-c2ccccc2)c1NC(=O)CCl` [PCM-0102225]: the viability at 48 h, 10 µM came to 91% in the data set “in vitro [1]”, 99% in the data set “in vitro [2]” and 81% in the data set “in vitro [3]”. The PCAF on PCAF is listed as 0. The molecule further displayed a BSA on BSA of 0. Besides, the NUDT7 at NUDT7 came to 0.16.
Take `O=C(CCl)Nc1c(Cl)cccc1Cl` [PCM-0102234]: the viability at 48 h, 10 µM in the data set “in vitro [1]” amounted to 101%; in “in vitro [2]”, 96.3%; in “in vitro [3]” it was 77.5%. The molecule further yielded a PCAF on PCAF of 0.45. Also, the BSA at BSA came out at 0. In addition, on NUDT7, the NUDT7 is reported as 0.64.
For the molecule `CC1CCN(c2ccc(NC(=O)CCl)cc2)CC1.Cl` [PCM-0102235], the viability at 48 h, 10 µM in “in vitro [1]” is 18.9%; in the data set “in vitro [2]”, 21.9%; in the data set “in vitro [3]”, 48.3%. This molecule also returned a PCAF at PCAF of 0. Besides, the BSA at BSA is listed as 0. Besides, on NUDT7, the NUDT7 is 0.
On to `COc1ccc(NC(=O)NC(=O)CCl)cc1` [PCM-0102268], for which the results for the viability at 48 h, 10 µM in “in vitro [1]”, in “in vitro [2]” and in “in vitro [3]” were 65%, 63.7% and 70.4%, respectively. Besides, the PCAF on PCAF is 0. At BSA, the BSA stood at 0. On NUDT7, this molecule had an NUDT7 of 0.
Regarding `Cc1cc(N2CCCC2)ccc1NC(=O)CCl` [PCM-0102301], the viability at 48 h, 10 µM in “in vitro [1]” was 40.7%; in the data set “in vitro [2]”, 47.9%; in the data set “in vitro [3]”, 78.6%. The PCAF at PCAF stood at 0. Moreover, the BSA on BSA is listed as 0. The molecule further registered an NUDT7 at NUDT7 of 0.24.
For `O=C(CCl)NNc1ccccn1` [PCM-0102319], the viability at 48 h, 10 µM stood at 94.6% in the data set “in vitro [1]”, 106% in “in vitro [2]” and 106% in “in vitro [3]”. This molecule also yielded a PCAF at PCAF of 0. The molecule further returned a BSA at BSA of 0. The molecule also showed an NUDT7 at NUDT7 of 0.
For the molecule `O=C(CCl)Nc1ccc2c(c1)OCCO2` [PCM-0102324], the values for the viability at 48 h, 10 µM in the data set “in vitro [1]”, in the data set “in vitro [2]” and in “in vitro [3]” were 8.2%, 35.2% and 63.3%, respectively. On PCAF, this molecule displayed a PCAF of 0. On BSA, the BSA was 0.
For `Cc1cc(NC(=O)CCl)n(C)n1` [PCM-0102383], the viability at 48 h, 10 µM in “in vitro [1]” turned out to be 31.2%; in “in vitro [2]” it was 64.5%; in “in vitro [3]”, 54.4%. This molecule displayed a PCAF on PCAF of 0. At BSA, the BSA is given as 0. The molecule further yielded an NUDT7 at NUDT7 of 0.
Take `O=C(CCl)N1CCc2cc([N+](=O)[O-])ccc21` [PCM-0102403]: the viability at 48 h, 10 µM in “in vitro [1]” is 50.4%; in the data set “in vitro [2]”, 21.2%; in “in vitro [3]” it was 51.4%. Besides, the PCAF on PCAF came out at 0. The same molecule gave a BSA on BSA of 0. Further, at NUDT7, the NUDT7 was found to be 0.
Regarding `Cc1ccc(NC(=O)CCl)c(Cl)c1` [PCM-0102408], the viability at 48 h, 10 µM in “in vitro [1]” worked out at 38.1%; in the data set “in vitro [2]”, 35.9%; in “in vitro [3]” it was 78.1%. Also, the PCAF at PCAF amounted to 0. Also, at BSA, the BSA was 0. Further, the NUDT7 on NUDT7 was 0.18.
Take `CC1CCCCN1C(=O)CCl` (stereo not drawn) [PCM-0102434]: the results for the viability at 48 h, 10 µM in “in vitro [1]”, in “in vitro [2]” and in “in vitro [3]” were 71.3%, 89.1% and 82.7%, respectively. The molecule further showed a PCAF on PCAF of 0. In addition, at BSA, the BSA is listed as 0. Further, on NUDT7, the NUDT7 came to 0.
Turning to `C=CC(=O)NC1c2ccccc2CC12CCOCC2` (stereo not drawn) [PCM-0102445], the figures for the viability at 48 h, 10 µM in the data set “in vitro [1]”, in “in vitro [2]” and in “in vitro [3]” were 111%, 103% and 106%, respectively. For the same molecule, at PCAF, the PCAF worked out at 0. This molecule came in with a BSA at BSA of 0. The NUDT7 at NUDT7 came to 0.
As to `C=CC(=O)N1CCC(NC(=O)c2cc(C)on2)CC1` [PCM-0102557], the viability at 48 h, 10 µM in “in vitro [1]” amounted to 83.7%; in the data set “in vitro [2]”, 101%; in “in vitro [3]”, 101%. Also, the PCAF at PCAF is on record as 0. Besides, the BSA at BSA was 0. This molecule gave an NUDT7 at NUDT7 of 0.
With `C=CC(=O)NCc1cnc(C)s1` [PCM-0102587], the viability at 48 h, 10 µM turned out to be 83.2% in the data set “in vitro [1]”, 107% in “in vitro [2]” and 111% in the data set “in vitro [3]”. At PCAF, this molecule yielded a PCAF of 0. For the same molecule, the BSA on BSA is 0.24. In addition, on NUDT7, the NUDT7 was found to be 0.
On to `O=C(CCl)N1CC=C(c2c[nH]c3ccccc23)CC1` [PCM-0102631], for which the results for the viability at 48 h, 10 µM in the data set “in vitro [1]”, in the data set “in vitro [2]” and in the data set “in vitro [3]” were 46.3%, 15.3% and 77.7%, respectively. Besides, on PCAF, the PCAF was determined as 0. On BSA, this molecule yielded a BSA of 0.
Take `N#Cc1ccsc1NC(=O)CCl` [PCM-0102768]: the figures for the viability at 48 h, 10 µM in the data set “in vitro [1]”, in “in vitro [2]” and in “in vitro [3]” were 45.9%, 46.1% and 74.6%, respectively. The same molecule showed a PCAF at PCAF of 0.
Turning to `C=CC(=O)NC(C)c1ccc(C(F)(F)F)nc1Cl` (stereo not drawn) [PCM-0103053], the viability at 48 h, 10 µM in the data set “in vitro [1]” amounted to 85.5%; in “in vitro [2]”, 99.6%; in the data set “in vitro [3]”, 113%. This molecule returned a PCAF at PCAF of 0. For the same molecule, on BSA, the BSA amounted to 0.

Broadly, the viability is a read-out of living cells in per cent, often relative to untreated cells.
